Results published in patent US11771705B2, “Adjuvant therapy for use in prostate cancer treatment” (priority 2017, dated 2023).
Like-named read-outs stand apart in the source and are kept apart here.

Tests used:
[1] = assay type: in vivo, healthy men
Protocol: A phase I, double-blind, randomised, placebo-controlled, multiple dose study to evaluate the safety, pharmacokinetics and pharmacodynamics of multiple dosages of estetrol in healthy men.
Male participants aged between 40 and 70 years were allocated to one of the following groups: • Group 1: 20 mg E4 (estetrol) or placebo; • Group 2: 40 mg E4 (estetrol) or placebo; • Group 3: 60 mg E4 (estetrol) or placebo.
A total of 15 subjects were assigned to each dose group: 10 subjects were randomised to receive the active treatment (E4), 5 subjects were randomised to receive placebo treatment. In total […] participated in this study.
Dosing began with Group 1. The other groups were dosed consecutively. Dose escalation to the next E4 dose group proceeded based on reported adverse events (AEs), SHBG levels, lipids and haemostatic parameters. The decision to continue with the next higher E4 dose level was made by the Investigator, an independent expert and the Sponsor.
E4 was supplied as tablets and taken orally every morning between 8:00-10:00 am, for 28 days. The total duration of the study, including screening was 84 days for each subject (Screening from Day −28 till Day −1, Clinical part from Day 1 till Day 56).
There were two primary outcome parameters in this study. First primary parameter was the safety evaluation of E4. Safety variables included vital signs, routine laboratory tests, physical examination, ECG measurement and monitoring of (S)AEs.
Second primary parameter was the hormones related to prostate function. FSH, LH, E2, total testosterone, free testosterone and sex hormone-binding globulin (SHBG) were measured.
Secondary parameters included other pharmacodynamic and pharmacokinetic parameters. The pharmacodynamic parameters which were assessed are the following: • Haemostatic factors: (extrinsic) APC-resistance, prothrombin fragment 1+2, free tissue factor pathway inhibitor (TFPI), antithrombin activity, protein S activity, D-dimer, angiotensinogen; • Lipids and lipoproteins: total cholesterol, triglycerides, HDL-cholesterol, LDL-cholesterol and lipoprotein(a) (Lp(a)); • Carbohydrates: fasting serum glucose; • Bone turnover markers: osteocalcin, type I collagen telopeptide (CTX-1) and parathyroid hormone (PTH); • Prostate-specific antigen (PSA).
Pharmacokinetics were evaluated by measuring E4 trough levels on Day 2, 7, 14 and 28. Furthermore, on Day 28 before and at several time points after dosing E4 concentrations were measured.

[2] = assay type: in vivo, male patients; settings: average of Day 7 and Day 14
Protocol: For each group dosed at 2, 10, 20, 40 and 60 mg estetrol daily (oral administration), 7 to 10 male patients were tested for their plasma content in estetrol at Day 7 and at Day 14. For each dose group, the average trough level of all patients across both days was calculated.

[3] = system: adenocarcinoma of the prostate; assay: Estetrol in prostate cancer patients treated with ADT, randomized placebo controlled (Example 3); assay type: in vivo, male patients; settings: GnRH agonist plus 40 mg estetrol per day oral, 24 weeks
From the text: Male patients who have histologically confirmed adenocarcinoma of the prostate and who are qualifying for treatment with androgen deprivation therapy (ADT: GnRH agonist) are included. The study is randomized placebo controlled.
Randomisation takes place after a patient is found to be eligible at the baseline visit. Subjects receive the study medication for a period of 24 weeks in total.
Subjects receive blinded study medication (oral administration) as follows: • Investigational product: GnRH agonist plus 40 mg estetrol (E4) per day; • Placebo: GnRH agonist plus placebo.
Medication should be taken in the morning between 8:00-10:00 AM. All patients concomitantly receive a prophylactic dose of dabigatran (220 mg once daily) or another anticoagulant.
A total of 30 patients is being dosed as follows: 20 patient in the estetrol group and 10 patients in the reference therapy group (placebo).
The primary objective is to assess the additional effects of E4 on total T and free T. Secondary objectives include the assessment of the effects of E4 on SHBG, PSA response and lipids and lipoproteins. […]

[4] = system: adenocarcinoma of the prostate; assay: Estetrol on testosterone suppression and quality of life in prostate cancer patients treated with ADT (Example 4); assay type: in vivo, male patients; settings: GnRH agonist plus 40 mg estetrol monohydrate p.o. per day, 24 weeks
Protocol: Male patients who have histologically confirmed adenocarcinoma of the prostate and who are qualifying for treatment with androgen deprivation therapy (ADT: GnRH agonist) participate in randomized placebo controlled study. Randomisation takes place after a patient is found to be eligible at the baseline visit. Subjects receive the study medication for a period of 24 weeks in total. Subjects receive blinded study medication: • Investigational product: GnRH agonist plus 40 mg estetrol monohydrate (E4) p.o. per day; • Placebo: GnRH agonist plus placebo. Selection of the GnRH agonist is left to the doctors treating the individual patients. Medication is taken in the morning between 8:00-10:00 AM. A total of 60 patients is dosed as follows: 40 patient in the estetrol group and 20 patients in the reference therapy group (placebo). Effects of medication on total T, free T, SHBG, hot flushes, PSA response, endocrine parameters, adrenal androgens and the lipid profile are assessed. Further assessed are the effects on health related quality of life (using the Functional Assessment of Cancer Therapy Prostate (FACT-P) questionnaire and a small questionnaire on the presence and absence of endocrine related symptoms (Q-man questionnaire)) and effects on bone turnover (bone markers).

[5] = 20 mg or 40 mg daily, cited from earlier work
[6] = Day 28 vs Day 1, 20, 40, 60 mg daily

Trough plasma level ([2]; daily oral dose 2 mg): 198 pg/mL
Trough plasma level ([2]; daily oral dose 10 mg): 1056 pg/mL
Trough plasma level ([2]; daily oral dose 20 mg): 2187 pg/mL
Trough plasma level ([2]; daily oral dose 40 mg): 4417 pg/mL
Trough plasma level ([2]; daily oral dose 60 mg): 6157 pg/mL
SMILES: C[C@]12CC[C@@H]3c4ccc(O)cc4CC[C@H]3[C@@H]1[C@@H](O)[C@@H](O)[C@@H]2O [estetrol]
HDL Cholesterol [1, 6]: small increase
Lowering effect on LDL Cholesterol [1, 6]: about 20%
TG (triglycerides) [1, 6]: no changes
Free testosterone level ([1]; Day 28 vs Day 1, 20, 40, 60 mg daily (FIG. 1A)): decreased
Total testosterone level ([1]; Day 28 vs Day 1, 20, 40, 60 mg daily (FIG. 1B)): decreased
SHBG level ([1]; Day 28 vs Day 1, 20, 40, 60 mg daily (FIG. 1C)): increase
LH level ([1]; Day 28 vs Day 1, 20, 40, 60 mg daily (FIG. 1D)): not much change
FSH levels ([1]; Day 28 vs Day 1, 20, 40, 60 mg daily (FIG. 1E)): decreased
Effects on bone (osteocalcin, CTX-1) ([1]; Day 28 vs Day 1, 20, 40, 60 mg daily (FIGS. 2I, 2J)): beneficial estrogenic effects
Changes in vital signs, ECG, physical examination and body weight ([1]; daily oral dose of 20 mg, 40 mg or 60 mg for 28 days): No clinically relevant changes
Tolerability ([1]; daily oral dose of 20 mg, 40 mg or 60 mg for 28 days, healthy men aged 40-70 years): well tolerated
LH levels after E4 administration ([1]; shortly after dosing, only for a few hours): decreased
Efficacy and quality of life of ADT treatment for prostate cancer [3]: effective therapy to improve efficacy and quality of life
Efficacy of ADT [4]: improves efficacy of ADT
Quality of life of the prostate cancer patients [4]: improves quality of life
Libido decreased during treatment ([5]; both cohorts): 8 of 20
Nipple tenderness reported ([5]; both cohorts): 7 of 20
Body weight and safety parameters ([5]; healthy men 40-70 years): did not change
Estradiol level ([5]; healthy men 40-70 years): decreased
FSH level ([5]; healthy men 40-70 years): decreased
Free testosterone level ([5]; healthy men 40-70 years): decreased
LH levels ([5]; healthy men 40-70 years): did not change
SHBG levels ([5]; healthy men 40-70 years): increased
Total testosterone level ([5]; healthy men 40-70 years): decreased
